Experiments:
PI3K delta (PI3 Kd) = molecular target: T1, PI3K delta (PI3 Kd) (Homo sapiens, UniProt O00329); assay: kinobeads assay, PI3K delta; format: binding; conditions: kinobeads assay, Table 6; read-out: Inhibition values (IC50) PI3Kd
T1 construct: endogenous in cells; host or cells: Jurkat, clone E6-1 (ATCC TIB-152) cell lysate
Method in brief: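 Competitive binding in Jurkat cell lysate (5 mg/ml total protein): test compounds at various concentrations competed with beads bearing immobilized phenylmorpholin-chromen ligand. Bead-bound kinases were eluted and quantified by antibody dot blot with infrared detection; IC50 values came from dose-response curves.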

PI3 Kgamma (PI3 Kg) = molecular target: T2, PI3 Kgamma (PI3 Kg) (Homo sapiens, UniProt P48736); assay: kinobeads assay, PI3Kgamma; format: binding; conditions: kinobeads assay, Table 6; read-out: Inhibition values (IC50) PI3Kg
T2 construct: endogenous in cells; host or cells: cell lysate
T2 sequence (P48736 whole entry): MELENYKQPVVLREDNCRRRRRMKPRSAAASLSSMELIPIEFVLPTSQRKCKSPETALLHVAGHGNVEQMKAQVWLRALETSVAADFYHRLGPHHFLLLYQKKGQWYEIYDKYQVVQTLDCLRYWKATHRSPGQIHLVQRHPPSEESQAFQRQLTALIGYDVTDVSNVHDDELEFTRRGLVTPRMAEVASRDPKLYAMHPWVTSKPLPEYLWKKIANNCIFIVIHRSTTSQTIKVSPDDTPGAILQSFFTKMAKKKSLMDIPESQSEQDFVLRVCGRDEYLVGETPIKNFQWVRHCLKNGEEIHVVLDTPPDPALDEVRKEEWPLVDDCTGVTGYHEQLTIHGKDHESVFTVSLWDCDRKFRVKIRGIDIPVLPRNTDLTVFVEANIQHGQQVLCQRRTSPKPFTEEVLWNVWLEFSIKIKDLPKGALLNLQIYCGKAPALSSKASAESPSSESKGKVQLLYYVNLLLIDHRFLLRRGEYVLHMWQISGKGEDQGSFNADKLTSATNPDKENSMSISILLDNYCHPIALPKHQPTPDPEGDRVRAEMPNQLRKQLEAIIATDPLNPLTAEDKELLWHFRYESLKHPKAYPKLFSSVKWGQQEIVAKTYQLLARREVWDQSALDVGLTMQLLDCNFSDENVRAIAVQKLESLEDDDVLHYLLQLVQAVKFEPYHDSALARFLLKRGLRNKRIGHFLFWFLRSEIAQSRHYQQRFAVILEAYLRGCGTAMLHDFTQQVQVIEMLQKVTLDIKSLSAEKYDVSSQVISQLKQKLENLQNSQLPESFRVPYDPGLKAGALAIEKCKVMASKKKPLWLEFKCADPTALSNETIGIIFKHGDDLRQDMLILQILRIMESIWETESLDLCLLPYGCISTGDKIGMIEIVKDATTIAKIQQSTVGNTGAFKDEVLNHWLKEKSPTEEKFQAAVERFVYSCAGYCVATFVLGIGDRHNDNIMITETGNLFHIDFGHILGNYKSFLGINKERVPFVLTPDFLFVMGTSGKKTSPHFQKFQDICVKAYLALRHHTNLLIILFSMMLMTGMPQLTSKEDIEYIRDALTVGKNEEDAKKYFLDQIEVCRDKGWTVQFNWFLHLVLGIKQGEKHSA
Method in brief: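 Read-out is multiplexed immunodetection of kinase eluted from phenylmorpholin-chromen ligand beads after their incubation in cell lysate with test compound at various concentrations. Reduced capture reflects competition, and per-kinase dose-response curves yield IC50.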

T1 sequence (O00329 whole entry): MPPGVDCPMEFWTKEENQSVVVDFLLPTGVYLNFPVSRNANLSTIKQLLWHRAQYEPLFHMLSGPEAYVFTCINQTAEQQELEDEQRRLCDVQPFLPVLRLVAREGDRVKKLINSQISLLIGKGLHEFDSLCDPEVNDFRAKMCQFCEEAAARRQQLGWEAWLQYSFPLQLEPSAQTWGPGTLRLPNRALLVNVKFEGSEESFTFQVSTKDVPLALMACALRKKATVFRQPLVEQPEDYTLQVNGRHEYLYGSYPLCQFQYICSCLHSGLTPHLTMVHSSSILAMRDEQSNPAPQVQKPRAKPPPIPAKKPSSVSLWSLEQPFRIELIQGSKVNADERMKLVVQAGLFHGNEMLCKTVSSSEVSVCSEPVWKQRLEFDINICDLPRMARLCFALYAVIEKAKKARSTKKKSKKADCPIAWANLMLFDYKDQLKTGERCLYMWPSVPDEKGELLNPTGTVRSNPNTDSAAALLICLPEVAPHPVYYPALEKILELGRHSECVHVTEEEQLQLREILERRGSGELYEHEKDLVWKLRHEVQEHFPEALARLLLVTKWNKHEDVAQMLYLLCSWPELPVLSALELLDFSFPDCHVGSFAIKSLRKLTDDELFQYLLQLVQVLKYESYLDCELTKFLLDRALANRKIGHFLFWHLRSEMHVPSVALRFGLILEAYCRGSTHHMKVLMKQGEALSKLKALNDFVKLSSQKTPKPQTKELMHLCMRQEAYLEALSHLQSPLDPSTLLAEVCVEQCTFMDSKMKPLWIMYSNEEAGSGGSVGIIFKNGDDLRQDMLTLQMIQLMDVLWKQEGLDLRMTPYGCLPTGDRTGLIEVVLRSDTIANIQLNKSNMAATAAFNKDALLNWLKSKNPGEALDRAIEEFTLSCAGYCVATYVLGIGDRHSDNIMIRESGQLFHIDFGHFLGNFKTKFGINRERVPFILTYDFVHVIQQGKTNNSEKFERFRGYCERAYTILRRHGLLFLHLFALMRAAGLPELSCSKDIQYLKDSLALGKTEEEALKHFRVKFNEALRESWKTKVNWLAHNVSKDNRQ
T1 sequence (P27986 whole entry partner): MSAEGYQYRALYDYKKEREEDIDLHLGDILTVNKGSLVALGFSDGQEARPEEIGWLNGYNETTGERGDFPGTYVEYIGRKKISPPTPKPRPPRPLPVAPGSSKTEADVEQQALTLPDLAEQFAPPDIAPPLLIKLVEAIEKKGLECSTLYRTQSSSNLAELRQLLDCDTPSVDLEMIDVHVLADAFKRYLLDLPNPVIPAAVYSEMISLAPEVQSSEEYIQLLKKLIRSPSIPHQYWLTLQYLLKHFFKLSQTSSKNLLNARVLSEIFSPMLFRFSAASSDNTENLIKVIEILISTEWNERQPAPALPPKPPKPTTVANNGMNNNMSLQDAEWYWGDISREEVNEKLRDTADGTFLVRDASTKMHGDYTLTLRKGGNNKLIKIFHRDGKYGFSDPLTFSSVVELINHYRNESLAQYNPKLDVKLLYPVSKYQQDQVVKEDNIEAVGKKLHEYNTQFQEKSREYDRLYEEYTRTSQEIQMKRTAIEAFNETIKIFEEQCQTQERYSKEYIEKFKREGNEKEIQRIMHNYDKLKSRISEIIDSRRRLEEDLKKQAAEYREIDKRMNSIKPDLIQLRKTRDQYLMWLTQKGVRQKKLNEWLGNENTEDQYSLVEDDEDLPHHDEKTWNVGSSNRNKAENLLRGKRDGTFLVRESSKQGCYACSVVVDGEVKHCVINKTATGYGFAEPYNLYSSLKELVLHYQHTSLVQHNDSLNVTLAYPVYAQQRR

IC50 (PI3K delta (PI3 Kd)) [µM]	IC50 (PI3 Kgamma (PI3 Kg)) [µM]	SMILES
> 10	> 10	CCOC(=O)N1Cc2nc(-c3ccc(NC(=O)Nc4ccncc4)cc3)nc(N3CCOC[C@@H]3C)c2C1 [Example 121, (S)-ethyl 4-(3-methylmorpholino)-2-(4-(3-(pyridin-4-yl)ureido)phenyl)-5H-pyrrolo[3,4-d]pyrimidine-6(7H)-carboxylate]
> 10	> 10	CCNC(=O)Nc1ccc(-c2nc3c(c(N4CCOC[C@@H]4C)n2)CN(C2CCN(C(=O)OC)CC2)C3)cc1F [Example 122, (S)-methyl 4-(2-(4-(3-ethylureido)-3-fluorophenyl)-4-(3-methylmorpholino)-5H-pyrrolo[3,4-d]pyrimidin-6(7H)-yl)piperidine-1-carboxylate]
> 10	> 10	C[C@H]1COCCN1c1nc(-c2ccc(NC(=O)NC3CC3)cc2)nc2c1CN(C(=O)C1CCOCC1)C2 [Example 129, (S)-1-cyclopropyl-3-(4-(4-(3-methylmorpholino)-6-(tetrahydro-2H-pyran-4-carbonyl)-6,7-dihydro-5H-pyrrolo[3,4-d]pyrimidin-2-yl)phenyl)urea]
> 10	> 10	CCOC(=O)N1Cc2nc(-c3ccc(NC(=O)NC4CC4)cc3F)nc(N3CCOC[C@@H]3C)c2C1 [Example 131, (S)-ethyl 2-(4-(3-cyclopropylureido)-2-fluorophenyl)-4-(3-methylmorpholino)-5H-pyrrolo[3,4-d]pyrimidine-6(7H)-carboxylate]

More lines, now with the values behind:

SMILES	IC50 (PI3K delta (PI3 Kd)) [µM]	IC50 (PI3 Kgamma (PI3 Kg)) [µM]
CCNC(=O)Nc1cc(F)c(-c2nc3c(c(N4CCOC[C@@H]4C)n2)CCN(C)C3)cc1F [Example 108, (S)-1-(2,5-difluoro-4-(7-methyl-4-(3-methylmorpholino)-5,6,7,8-tetrahydropyrido[3,4-d]pyrimidin-2-yl)phenyl)-3-ethylurea]	> 10	> 10
CCNC(=O)Nc1ccc(-c2nc3c(c(N4CCOC[C@@H]4C)n2)CCN(C)C3)c(F)c1 [Example 110, (S)-1-ethyl-3-(3-fluoro-4-(7-methyl-4-(3-methylmorpholino)-5,6,7,8-tetrahydropyrido[3,4-d]pyrimidin-2-yl)phenyl)urea]	> 10	> 10
CCNC(=O)Nc1ccc(-c2nc3c(c(N4CCOC[C@@H]4C)n2)CN(C(=O)OCC)C3)c(F)c1 [Example 113, (S)-ethyl-2-(4-(3-ethylureido)-2-fluorophenyl)-4-(3-methylmorpholino)-5H-pyrrolo[3,4-d]pyrimidine-6(7H)-carboxylate]	> 10	> 10
CCOC(=O)N1Cc2nc(-c3ccc(NC(=O)NCCF)cc3)nc(N3CCOC[C@@H]3C)c2C1 [Example 120, (S)-ethyl 2-(4-(3-(2-fluoroethyl)ureido)phenyl)-4-(3-methylmorpholino)-5H-pyrrolo[3,4-d]pyrimidine-6(7H)-carboxylate]	> 10	> 10
